Data as given in US7138361B2, “Herbicidal heterocycles” (E. I. du Pont de Nemours and Company, priority 2000, dated 2006).

Legend:
Assay type in all cases: in vivo
Nightshade [1] = test: Test C preemergence
Sunflower = test: Test C preemergence; conditions: Rate 125 g/ha; scale 0 to 100, 0 no effect, 100 complete control
[2] = tested on: Surinam grass (Brachiaria decumbens); test: Test C preemergence
Procedure, shortened: (§1)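 Formulation: non-phytotoxic solvent mix incl. surfactant. Pre: applied right after planting. Post: 1–4-leaf seedlings. Read: visual 0–100, day 12–14, greenhouse.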

[3] = tested on: bermudagrass (Cynodon dactylon); test: Test C preemergence
Procedure, shortened: as §1

[4] = tested on: cocklebur (Xanthium strumarium); test: Test C preemergence
Procedure, shortened: as §1

[5] = tested on: common ragweed (Ambrosia elatior); test: Test C preemergence
Procedure, shortened: as §1

corn (Zea mays) = test: Test C preemergence
Procedure, shortened: as §1

[6] = tested on: crabgrass (Digitaria sanguinalis); test: Test C preemergence
Procedure, shortened: as §1

[7] = tested on: giant foxtail (Setaria faberii); test: Test C preemergence
Procedure, shortened: as §1

[8] = tested on: goosegrass (Eleusine indica); test: Test C preemergence
Procedure, shortened: as §1

[9] = tested on: johnsongrass (Sorghum halepense); test: Test C preemergence
Procedure, shortened: as §1

kochia (Kochia scoparia) = test: Test C preemergence
Procedure, shortened: as §1

[10] = tested on: morningglory (Ipomoea hederacea); test: Test C preemergence
Procedure, shortened: as §1

[11] = tested on: pigweed (Amaranthus retroflexus); test: Test C preemergence
Procedure, shortened: as §1

soybean (Glycine max) = test: Test C preemergence
Procedure, shortened: as §1

[12] = tested on: velvetleaf (Abutilon theophrasti); test: Test C preemergence
Procedure, shortened: as §1

[13] = tested on: woolly cupgrass (Eriochloa villosa); test: Test C preemergence
Procedure, shortened: as §1

[14] = tested on: yellow nutsedge (Cyperus esculentus); test: Test C preemergence
Procedure, shortened: as §1

[15] = tested on: barnyardgrass (Echinochloa crus-galli); test: Test C flooded paddy test; conditions: for Plant response rating, Barnyardgrass: scale 0 to 100 (0 no effect, 100 complete control)
Procedure, shortened: (§2)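 Ratings come from visual comparison with control plants after 12 to 14 days in the greenhouse. Each species was at the 2-leaf stage when the flooded paddy was treated. Scores run from 0, meaning no effect, to 100, meaning complete control.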

[16] = tested on: duck salad (Heteranthera limosa); test: Test C flooded paddy test; conditions: for Plant response rating, Ducksalad: scale 0 to 100 (0 no effect, 100 complete control)
Procedure, shortened: as §2

rice (Oryza saliva) = test: Test C flooded paddy test; conditions: for Plant response rating, Rice: scale 0 to 100 (0 no effect, 100 complete control)
Procedure, shortened: as §2

[17] = tested on: smallflower flatsedge (Cyperus difformis); test: Test C flooded paddy test; conditions: for Plant response rating, Flatsedge: scale 0 to 100 (0 no effect, 100 complete control)
Procedure, shortened: as §2

Nightshade [18] = test: Test C preemergence; conditions: Rate 500 g/ha, visual evaluation after 12 to 14 days
[19] = Rate 125 g/ha, scale 0 to 100, 0 no effect, 100 complete control
[20] = preemergence, Rate 62 g/ha, scale 0 to 100
[21] = preemergence, Rate 500 g/ha, visual evaluation after 12 to 14 days
[22] = preemergence, Rate 250 g/ha, scale 0 to 100, 0 no effect, 100 complete control
[23] = Flooded Paddy, Rate 500 g/ha, scale 0 to 100, 0 no effect, 100 complete control
[24] = flooded paddy test, Rate 125 g/ha
[25] = flooded paddy test, Rate 250 g/ha
[26] = flooded paddy test, Rate 62 g/ha, visually evaluated after 12 to 14 days, 0 = no effect, 100 = complete control

CCC(C)c1ccn(C2CCN(c3ccc(Br)c(OC)c3)C2=O)n1 (stereo not shown) [Compound 142]
Plant response rating, Nightshade (Nightshade [1]; Rate 62 g/ha, scale 0 to 100): 90
Plant response rating, Nightshade (Nightshade [1]; [19]): 100
Plant response rating, Nightshade (Nightshade [1]; Rate 250 g/ha, scale 0 to 100, 0 no effect, 100 complete control): 100
Plant response rating, Sunflower (Sunflower): 20
Plant response rating, Surinam grass [2, 19]: 0
Plant response rating, Surinam grass [2, 20]: 0
Plant response rating (0 to 100), Surinam grass [2, 21]: 100
Plant response rating, Surinam grass [2, 22]: 50
Plant response rating, Bermudagrass [3, 19]: 100
Plant response rating, Bermudagrass [3, 20]: 100
Plant response rating (0 to 100 where 0 is no effect and 100 is complete control), Bermudagrass [3, 21]: 100
Plant response rating, Bermudagrass [3, 22]: 100
Plant response rating, Cocklebur [4, 19]: 30
Plant response rating, Cocklebur [4, 20]: 0
Plant response rating (0 to 100), Cocklebur [4, 21]: 60
Plant response rating, Cocklebur [4, 22]: 30
Plant response rating, Ragweed, Common [5, 19]: 100
Plant response rating, Ragweed, Common [5, 20]: 0
Plant response rating (0 to 100), Ragweed, Common [5, 21]: 100
Plant response rating, Ragweed, Common [5, 22]: 100
Plant response rating, Corn (corn (Zea mays); [19]): 0
Plant response rating, Corn (corn (Zea mays); [20]): 0
Plant response rating (0 to 100), Corn (corn (Zea mays); [21]): 10
Plant response rating, Corn (corn (Zea mays); [22]): 0
Plant response rating, Crabgrass [6, 19]: 100
Plant response rating, Crabgrass [6, 20]: 100
Plant response rating (0 to 100), Crabgrass [6, 21]: 100
Plant response rating, Crabgrass [6, 22]: 100
Plant response rating, Foxtail, Giant [7, 19]: 100
Plant response rating, Foxtail, Giant [7, 20]: 100
Plant response rating (0 to 100), Foxtail, Giant [7, 21]: 100
Plant response rating, Foxtail, Giant [7, 22]: 100
Plant response rating, Goosegrass [8, 19]: 100
Plant response rating, Goosegrass [8, 20]: 100
Plant response rating (0 to 100), Goosegrass [8, 21]: 100
Plant response rating, Goosegrass [8, 22]: 100
Plant response rating, Johnsongrass [9, 19]: 0
Plant response rating, Johnsongrass [9, 20]: 0
Plant response rating (0 to 100), Johnsongrass [9, 21]: 100
Plant response rating, Johnsongrass [9, 22]: 100
Plant response rating, Kochia (kochia (Kochia scoparia); [19]): 100
Plant response rating, Kochia (kochia (Kochia scoparia); [20]): 100
Plant response rating (0 to 100), Kochia (kochia (Kochia scoparia); [21]): 100
Plant response rating, Kochia (kochia (Kochia scoparia); [22]): 100
Plant response rating, Morningglory [10, 19]: 100
Plant response rating, Morningglory [10, 20]: 90
Plant response rating (0 to 100), Morningglory [10, 21]: 100
Plant response rating, Morningglory [10, 22]: 100
Plant response rating, Pigweed [11, 19]: 100
Plant response rating, Pigweed [11, 20]: 100
Plant response rating (0 to 100), Pigweed [11, 21]: 100
Plant response rating, Pigweed [11, 22]: 100
Plant response rating, Soybean (soybean (Glycine max); [19]): 70
Plant response rating, Soybean (soybean (Glycine max); [20]): 30
Plant response rating (0 to 100), Soybean (soybean (Glycine max); [21]): 100
Plant response rating, Soybean (soybean (Glycine max); [22]): 100
Plant response rating, Velvetleaf [12, 19]: 90
Plant response rating, Velvetleaf [12, 20]: 10
Plant response rating (0 to 100), Velvetleaf [12, 21]: 100
Plant response rating, Velvetleaf [12, 22]: 100
Plant response rating, Cupgrass, Woolly [13, 19]: 100
Plant response rating, Cupgrass, Woolly [13, 20]: 90
Plant response rating (0 to 100), Cupgrass, Woolly [13, 21]: 100
Plant response rating, Cupgrass, Woolly [13, 22]: 100
Plant response rating, Nutsedge [14, 19]: 0
Plant response rating, Nutsedge [14, 20]: 0
Plant response rating (0 to 100), Nutsedge [14, 21]: 20
Plant response rating, Nutsedge [14, 22]: 0
Barnyardgrass plant response rating [15, 23]: 100
Plant response rating, Barnyardgrass [15, 24]: 100
Plant response rating, Barnyardgrass [15, 25]: 100
Plant response rating (scale 0 to 100), Barnyardgrass [15, 26]: 80
Ducksalad plant response rating [16, 23]: 100
Plant response rating, Ducksalad [16, 24]: 90
Plant response rating, Ducksalad [16, 25]: 100
Plant response rating (scale 0 to 100), Ducksalad [16, 26]: 30
Rice plant response rating (rice (Oryza saliva); [23]): 55
Plant response rating, Rice (rice (Oryza saliva); [24]): 25
Plant response rating, Rice (rice (Oryza saliva); [25]): 45
Plant response rating (scale 0 to 100), Rice (rice (Oryza saliva); [26]): 0
Flatsedge plant response rating [17, 23]: 95
Plant response rating, Flatsedge [17, 24]: 95
Plant response rating, Flatsedge [17, 25]: 95
Plant response rating (scale 0 to 100), Flatsedge [17, 26]: 95
Plant response rating (0 to 100), Nightshade (Nightshade [18]): 100
